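Growth conditions: 96-well plates. Treatment: test compound, 48 hours, 5 concentrations. Analysis: linear interpolation between bracketing concentrations; unreached endpoints set to highest concentration. Abbreviation: GI50, concentration required for 50% inhibition of growth.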 Active and inactive are the calls of the source. Cut-off read from the data, not from the text of the source: active = GI50 up to about 1.1 µM and inactive = higher.
Experiments:
Assay in all cases: DTP human tumour cell line panel, 48 h
[1] = tested on: 786-0
[2] = tested on: T47D
[3] = tested on: M14
[4] = tested on: HL-60
[5] = tested on: RXF 393
[6] = tested on: Malme-3M
[7] = tested on: HT-29
[8] = tested on: DU-145
[9] = tested on: HCT-15
[10] = tested on: SK-MEL-28
[11] = tested on: A498
[12] = tested on: LOX IMVI
[13] = tested on: HOP-92
[14] = tested on: SK-OV-3
[15] = tested on: HCT-116
[16] = tested on: HOP-62
[17] = tested on: OVCAR-4
[18] = tested on: SN12C
[19] = tested on: COLO 205
[20] = tested on: SW-620
[21] = tested on: KM12
[22] = tested on: MDA-MB-435
[23] = tested on: SK-MEL-2
[24] = tested on: U-251
[25] = tested on: ACHN
[26] = tested on: RPMI-8226
[27] = tested on: UACC-62
[28] = tested on: CCRF-CEM
[29] = tested on: OVCAR-5
[30] = tested on: SF-295
[31] = tested on: SNB-19
[32] = tested on: EKVX
[33] = tested on: NCI/ADR-RES
[34] = tested on: MOLT-4
[35] = tested on: K562
[36] = tested on: UACC-257
[37] = tested on: NCI-H226
[38] = tested on: NCI-H522
[39] = tested on: UO-31
[40] = tested on: CAKI-1
[41] = tested on: SK-MEL-5
[42] = tested on: OVCAR-8
[43] = tested on: NCI-H460
[44] = tested on: SF-539
[45] = tested on: Hs-578T
[46] = tested on: A549
[47] = tested on: PC-3
[48] = tested on: MDA-MB-231
[49] = tested on: SR
[50] = tested on: MDA-N
[51] = tested on: SNB-75
[52] = tested on: OVCAR-3
[53] = tested on: SF-268
[54] = tested on: BT-549
[55] = tested on: NCI-H23
[56] = tested on: IGROV-1

Q: `O=C(O)/C=C\C(=O)Nc1ccccn1` was tested. Which GI50 [1] did it give?
A: Its GI50 is > 100 µM (inactive).

Q: And the GI50 [2]?
A: The GI50 was > 100 µM (inactive).

Q: What about the GI50 [3] of the same molecule?
A: Its GI50 is > 100 µM (inactive).

Q: What about the GI50 [4] of the same molecule?
A: Its GI50 is > 100 µM (inactive).

Q: And the GI50 [5]?
A: Its GI50 is > 100 µM (inactive).

Q: What about the GI50 [6] of the same molecule?
A: The GI50 was > 100 µM (inactive).

Q: And the GI50 [7]?
A: The GI50 was > 100 µM (inactive).

Q: And the GI50 [8]?
A: Its GI50 is > 100 µM (inactive).

Q: And the GI50 [9]?
A: Its GI50 is > 100 µM.

Q: What about the GI50 [10] of the same molecule?
A: Its GI50 is > 100 µM (inactive).

Q: And the GI50 [11]?
A: Its GI50 is > 100 µM (inactive).

Q: And the GI50 [12]?
A: The GI50 was > 100 µM (inactive).

Q: And the GI50 [13]?
A: Its GI50 is > 100 µM (inactive).

Q: And the GI50 [14]?
A: Its GI50 is > 100 µM (inactive).

Q: What about the GI50 [15] of the same molecule?
A: Its GI50 is > 100 µM (inactive).

Q: What about the GI50 [16] of the same molecule?
A: The GI50 was > 100 µM (inactive).

Q: And the GI50 [17]?
A: Its GI50 is > 100 µM (inactive).

Q: And the GI50 [18]?
A: The GI50 was > 100 µM (inactive).

Q: And the GI50 [19]?
A: Its GI50 is > 100 µM (inactive).

Q: What about the GI50 [20] of the same molecule?
A: The GI50 was > 100 µM (inactive).

Q: And the GI50 [21]?
A: The GI50 was > 100 µM (inactive).

Q: What about the GI50 [22] of the same molecule?
A: The GI50 was > 100 µM (inactive).

Q: What about the GI50 [23] of the same molecule?
A: Its GI50 is > 100 µM (inactive).

Q: And the GI50 [24]?
A: The GI50 was > 100 µM (inactive).

Q: What about the GI50 [25] of the same molecule?
A: Its GI50 is > 100 µM (inactive).

Q: And the GI50 [26]?
A: Its GI50 is > 100 µM (inactive).

Q: And the GI50 [27]?
A: The GI50 was > 100 µM (inactive).

Q: And the GI50 [28]?
A: Its GI50 is > 100 µM (inactive).

Q: What about the GI50 [29] of the same molecule?
A: The GI50 was > 100 µM (inactive).

Q: What about the GI50 [30] of the same molecule?
A: The GI50 was > 100 µM (inactive).

Q: And the GI50 [31]?
A: Its GI50 is > 100 µM (inactive).

Q: And the GI50 [32]?
A: Its GI50 is > 100 µM (inactive).

Q: And the GI50 [33]?
A: The GI50 was > 100 µM (inactive).

Q: What about the GI50 [34] of the same molecule?
A: Its GI50 is > 100 µM (inactive).

Q: And the GI50 [35]?
A: Its GI50 is > 100 µM (inactive).

Q: And the GI50 [36]?
A: Its GI50 is > 100 µM (inactive).

Q: What about the GI50 [37] of the same molecule?
A: The GI50 was > 100 µM (inactive).

Q: What about the GI50 [38] of the same molecule?
A: Its GI50 is > 100 µM (inactive).

Q: What about the GI50 [39] of the same molecule?
A: The GI50 was > 100 µM (inactive).

Q: What about the GI50 [40] of the same molecule?
A: Its GI50 is > 100 µM (inactive).

Q: And the GI50 [41]?
A: Its GI50 is > 100 µM (inactive).

Q: What about the GI50 [42] of the same molecule?
A: The GI50 was > 100 µM (inactive).

Q: And the GI50 [43]?
A: The GI50 was > 100 µM (inactive).

Q: What about the GI50 [44] of the same molecule?
A: The GI50 was > 100 µM (inactive).

Q: And the GI50 [45]?
A: Its GI50 is > 100 µM (inactive).

Q: And the GI50 [46]?
A: The GI50 was > 100 µM (inactive).

Q: And the GI50 [47]?
A: Its GI50 is > 100 µM (inactive).

Q: And the GI50 [48]?
A: Its GI50 is > 100 µM (inactive).

Q: What about the GI50 [49] of the same molecule?
A: The GI50 was > 100 µM (inactive).

Q: And the GI50 [50]?
A: The GI50 was > 100 µM (inactive).

Q: And the GI50 [51]?
A: The GI50 was > 100 µM (inactive).

Q: And the GI50 [52]?
A: The GI50 was > 100 µM (inactive).

Q: And the GI50 [53]?
A: The GI50 was > 100 µM (inactive).

Q: What about the GI50 [54] of the same molecule?
A: Its GI50 is > 100 µM (inactive).

Q: What about the GI50 [55] of the same molecule?
A: The GI50 was > 100 µM (inactive).

Q: And the GI50 [56]?
A: Its GI50 is > 100 µM (inactive).

Source: ChEMBL document CHEMBL1201862, “PubChem BioAssay data set” (2004)
